Laboratory results as given in ChEMBL document CHEMBL1152372, “A stabilized demethoxyviridin derivative inhibits PI3 kinase” (Bioorg Med Chem Lett, 2009).

What was measured:
[1] = Stability in PBS at pH 7.4 assessed as half life at 1.5 mM by HPLC in presence of proline; format: physicochemical; details: buffer, pH 7.4, 1500 µM
[2] = Stability in RPMI culture media assessed as half life at 1.5 mM by HPLC; format: physicochemical; details: 1500 µM
[3] = Stability in PBS at pH 7.4 assessed as half life at 1.5 mM by HPLC in presence of glycine; format: physicochemical; details: buffer, pH 7.4, 1500 µM
[4] = Stability in PBS at pH 7.4 assessed as half life at 1.5 mM by HPLC; format: physicochemical; details: buffer, pH 7.4, 1500 µM
[5] = Stability in PBS at pH 7.4 assessed as half life at 1.5 mM by HPLC in presence of NAc-lysine; format: physicochemical; details: buffer, pH 7.4, 1500 µM
[6] = target: Phosphatidylinositol 4,5-bisphosphate 3-kinase catalytic subunit alpha isoform (Homo sapiens, UniProt P42336); assay: Inhibition of PI3 kinase
Phosphatidylinositol 4,5-bisphosphate 3-kinase catalytic subunit alpha isoform, sequence (P42336 whole entry, canonical isoform): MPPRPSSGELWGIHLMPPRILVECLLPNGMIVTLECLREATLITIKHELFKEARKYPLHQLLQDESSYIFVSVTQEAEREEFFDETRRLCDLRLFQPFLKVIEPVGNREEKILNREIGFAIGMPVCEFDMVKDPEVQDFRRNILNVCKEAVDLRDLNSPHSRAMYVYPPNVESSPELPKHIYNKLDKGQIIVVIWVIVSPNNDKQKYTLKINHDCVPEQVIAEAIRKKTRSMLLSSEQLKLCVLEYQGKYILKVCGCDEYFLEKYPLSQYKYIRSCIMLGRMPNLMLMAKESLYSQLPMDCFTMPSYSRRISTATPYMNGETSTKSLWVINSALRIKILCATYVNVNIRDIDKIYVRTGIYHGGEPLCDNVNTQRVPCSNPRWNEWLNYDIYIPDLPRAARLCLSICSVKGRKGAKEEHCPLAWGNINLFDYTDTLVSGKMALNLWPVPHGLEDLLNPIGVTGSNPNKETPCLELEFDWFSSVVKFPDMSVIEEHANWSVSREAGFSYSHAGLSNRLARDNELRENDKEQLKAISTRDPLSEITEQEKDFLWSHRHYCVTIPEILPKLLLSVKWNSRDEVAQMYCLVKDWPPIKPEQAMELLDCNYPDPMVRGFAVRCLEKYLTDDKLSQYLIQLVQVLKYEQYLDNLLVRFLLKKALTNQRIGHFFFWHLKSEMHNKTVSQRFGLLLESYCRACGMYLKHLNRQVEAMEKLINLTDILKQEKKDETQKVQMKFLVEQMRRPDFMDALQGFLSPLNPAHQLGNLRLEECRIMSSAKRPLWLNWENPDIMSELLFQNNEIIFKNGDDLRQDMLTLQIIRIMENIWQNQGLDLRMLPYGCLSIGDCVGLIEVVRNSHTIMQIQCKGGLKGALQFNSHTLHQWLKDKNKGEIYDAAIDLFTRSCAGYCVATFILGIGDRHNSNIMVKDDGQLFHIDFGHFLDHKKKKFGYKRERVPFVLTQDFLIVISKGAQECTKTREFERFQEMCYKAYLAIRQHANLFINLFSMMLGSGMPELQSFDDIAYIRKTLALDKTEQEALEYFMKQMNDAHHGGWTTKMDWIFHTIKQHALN

Structure (SMILES)	t1/2 [1]	t1/2 [2]	t1/2 [3]	t1/2 [4]	t1/2 [5]	IC50 [6]
C[C@@]12c3ccc4c(c3C(=O)c3occ(c31)C(=O)C[C@H]2O)CCC4=O [DEMETHOXYVIRIDIN]	0.59 min	0.47 min	0.99 min	26 min	0.61 min	1 nM
COC[C@H]1OC(=O)/C(=C\N2CCCC2C(=O)O)C2=C(O)C(=O)C3=C([C@H](OC(C)=O)C[C@]4(C)C(=O)CC[C@@H]34)[C@]21C (stereo partly drawn)						68 nM
C[C@]12C(=C(O)C(=O)c3c1ccc1c3CCC1=O)/C(=C/NCC(=O)O)C(=O)C[C@H]2OC(=O)CCC(=O)O	126 min	64 min		218 min	94 min	
COC[C@H]1OC(=O)c2coc3c2[C@@]1(C)C1=C(C3=O)[C@@H]2CCC(=O)[C@@]2(C)C[C@H]1OC(C)=O [WORTMANNIN]	1.5 min	0.99 min	4.1 min	3470 min	18.4 min	
COC[C@H]1OC(=O)/C(=C\NCCCCC(NC(C)=O)C(=O)O)C2=C(O)C(=O)C3=C([C@H](OC(C)=O)C[C@]4(C)C(=O)CC[C@@H]34)[C@]21C (stereo partly drawn)						> 1000 nM
C[C@@]12c3ccc4c(c3C(=O)c3occ(c31)C(=O)C[C@H]2OC(=O)CCC(=O)O)CCC4=O	108 min	0.43 min	13.5 min	120 min	23 min	20 nM
